According to patent US10940240B2, “Catheter locking solution and catheter locking therapy” (Medical Components, Inc., priority 2016, dated 2021):

Test system: Staphylococcus aureus CIP 65.25 (methicillin resistant)
Assay: anti-biofilm assay on 24 h biofilms formed on Chronoflex catheter segments in microfermentors
Assay type: cell-based
Conditions: for effect on bacterial survival / lysis of bacterial cells: biofilm exposed 24 hours at 37° C., complete lysis = under the threshold of detection (10 CFU per KT segment); for number of viable cells on catheter segment (Moyenne): biofilm on catheter segment exposed to solution for 24 hours at 37° C., triplicate, limit of detection 10 CFU per KT segment; for effect in lysing the bacteria compared with 15 v/v % EtOH: EtOH alone
Experimental: For example, preliminary assay testing of anti-biofilm properties of a TCEA solution comprising a 10.0 w/v % concentration of trisodium citrate at and 15.0, 20.0 and 25.0 v/v % concentrations of ethyl alcohol (i.e., ethanol or EtOH) were conducted. The testing was performed in the following manner.
Ethanol 15%, 20% and 25% (v/v)+trisodium citrate 10% (w/v)
Controls: Ethanol 15%, 20% and 25% • Trisodium citrate 10% • Water for injection The material tested were segments, each 1 centimeter long, of sterile catheters Chronoflex (“catheter segments”). The strains used were Staphylococcus aureus CIP 65.25 (methicillin resistant).
Biofilms were formed in aerated microfermentors with catheter segments fixed onto an internal removable glass slide of the microfermentors. Strains from frozen stocks were cultivated in Trypticase Soja broth (“TSB”). An inoculum of 10^8 cells was used to inoculate microfermentors containing the catheter segments. A continuous flow of 54 milliliters per hour (“mL/h”) of TSB and constant aeration with sterile pressed air at 0.3 bar were used to obtain continuous flow-through culture conditions. After 24 hours of incubation, the catheter segments were removed from the incubator and separated from their respective microfermentor device. Each catheter segment was then carefully rinsed in 1 mL of saline.
To determine the number of viable cells within the biofilms formed onto the catheter segments before being subjected to or made to be in contact with the test solutions (i.e., before treatment), the biofilms (triplicate for each strain) were resuspended in TSB by sonication and vortexing. Serial dilutions of the resulting suspensions were performed and plated onto appropriate agar plates to determine the number of viable cells after overnight incubation at 37 degrees Celsius (“° C.”).
In parallel, catheter segments to be tested were placed in a tube containing 1 mL of the different lock solutions: (i) ethanol at 15%, 20% and 25% (vol/vol); (ii) trisodium citrate at 10% (vol/vol); (iii) ethanol/tri sodium citrate mixing solutions (15%-10%, 20%-10%, 25%-10% (vol/vol)), wherein ethanol concentrations were 15%, 20%, and 25%, and trisodium citrate concentration was 10%; and (iv) water for injection as control. For every organism, the experiments were repeated in triplicate, and during each treatment assay catheter segments were exposed to the different solutions for 24 hours at 37° C. Subsequently, the catheter segments were removed, rinsed once with saline, and the number of adherent viable microorganisms determined, as described above. In FIG. 1, the number of viable cells is expressed as Colony Forming Unit (“CFU”), and the bacteria count is expressed as a decimal logarithm, log 10. (Note: FIG. 1 expresses the CFU as UFC, which is an acronym for unite formant colonie and is the same unit of measure as CFU.). The limit of detection in the experimental conditions is 10 CFU per KT segment, thus the threshold of detection is 10 CFU per KT segment. KT is a catheter sample used during testing, and its length can range from 3 to 5 centimeters. A KT can be a specimen of a catheter that have been cut (1 meter long usually) and placed into a microfermentor apparatus so that biofilms are formed at a surface of the catheter. Once the biofilm is formed and place into contact with the catheter lock solution to be tested, a measured the number of bacterial viable cells still present at the surface of the catheter is obtained. The limit of detection is 10 Colony Forming Units per specimen of catheter.
During the study, the disclosed catheter locking solution had been tested to ascertain whether it can eradication viable bacterial and prevent regrowth of biofilm. […] The catheter locking solution had been tested against Staphylococcus aureus (methicillin resistant).

Molecule | effect on bacterial survival / lysis of bacterial cells | number of viable cells on catheter segment (Moyenne) [CFU] | effect in lysing the bacteria compared with 15 v/v % EtOH | effect on bacterial survival / lysis of bacterial cells (listed as EtOH alone (at 15 v/v %)) | effect on bacterial survival / lysis of bacterial cells (listed as EtOH alone, at 15 v/v % concentration) | effect on bacterial survival / lysis of bacterial cells (listed as Ethyl alcohol at a concentration of 15.0 v/v %) | bacterial cells after treatment (decreased from 1.00 E+07) (preliminary in vitro testing)
O=C([O-])CC(O)(CC(=O)[O-])C(=O)[O-].[Na+].[Na+].[Na+] [citrate 10% (m/v), trisodium citrate] | no effect on the bacterial survival | 3.64E+06 | – | – | – | – | –
ethyl alcohol [EtOH 20% (v/v)] | – | 1.00E+01 | significantly greater effect in lysing the bacteria | – | – | – | –
ethyl alcohol [EtOH 15% (v/v)] | – | 2.12E+02 | – | did not lyse all the bacterial cells | did not lyse all the bacterial cells | did not lyse all bacterial cells | 1.00E+02
ethyl alcohol [EtOH 25% (v/v)] | – | 1.00E+01 | significantly greater effect in lysing the bacteria | – | – | – | –
